Laboratory results reported in patent publication US8546389B2 (priority 2010, dated 2013).
Read-outs that look alike come from different tables or passages of the source.

Legend:
1b (BK) NS5bΔ21 = 1b (BK) NS5bΔ21 (Hepatitis C virus genotype 1b (isolate BK) (HCV), UniProt P26663); experiment: HCV polymerase inhibition assay, genotype 1b; type: biochemical, HCV genotype 1b (BK)
How it was run: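 Both genotype 1b and 3a enzymes assayed identically: ^33P-GTP incorporation on poly(rC) template, GTP at Km, 50 nM NS5bΔ21, pH 7.5 Tris with 5 mM MgCl2 and MnCl2, 1 h reaction ended by cold EDTA. Filter-bound label counted; IC50 fitted by non-linear regression across three-fold dilution series.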

[1] = molecular target: genotype 3a (VRL-69) NS5bΔ21 polymerase (Hepatitis C virus genotype 3a, UniProt Q81258); experiment: HCV polymerase inhibition assay, genotype 3a; type: biochemical, HCV genotype 3a (VRL-69)
genotype 3a (VRL-69) NS5bΔ21 polymerase, sequence (Q81258 whole entry, looked up, stated change not applied): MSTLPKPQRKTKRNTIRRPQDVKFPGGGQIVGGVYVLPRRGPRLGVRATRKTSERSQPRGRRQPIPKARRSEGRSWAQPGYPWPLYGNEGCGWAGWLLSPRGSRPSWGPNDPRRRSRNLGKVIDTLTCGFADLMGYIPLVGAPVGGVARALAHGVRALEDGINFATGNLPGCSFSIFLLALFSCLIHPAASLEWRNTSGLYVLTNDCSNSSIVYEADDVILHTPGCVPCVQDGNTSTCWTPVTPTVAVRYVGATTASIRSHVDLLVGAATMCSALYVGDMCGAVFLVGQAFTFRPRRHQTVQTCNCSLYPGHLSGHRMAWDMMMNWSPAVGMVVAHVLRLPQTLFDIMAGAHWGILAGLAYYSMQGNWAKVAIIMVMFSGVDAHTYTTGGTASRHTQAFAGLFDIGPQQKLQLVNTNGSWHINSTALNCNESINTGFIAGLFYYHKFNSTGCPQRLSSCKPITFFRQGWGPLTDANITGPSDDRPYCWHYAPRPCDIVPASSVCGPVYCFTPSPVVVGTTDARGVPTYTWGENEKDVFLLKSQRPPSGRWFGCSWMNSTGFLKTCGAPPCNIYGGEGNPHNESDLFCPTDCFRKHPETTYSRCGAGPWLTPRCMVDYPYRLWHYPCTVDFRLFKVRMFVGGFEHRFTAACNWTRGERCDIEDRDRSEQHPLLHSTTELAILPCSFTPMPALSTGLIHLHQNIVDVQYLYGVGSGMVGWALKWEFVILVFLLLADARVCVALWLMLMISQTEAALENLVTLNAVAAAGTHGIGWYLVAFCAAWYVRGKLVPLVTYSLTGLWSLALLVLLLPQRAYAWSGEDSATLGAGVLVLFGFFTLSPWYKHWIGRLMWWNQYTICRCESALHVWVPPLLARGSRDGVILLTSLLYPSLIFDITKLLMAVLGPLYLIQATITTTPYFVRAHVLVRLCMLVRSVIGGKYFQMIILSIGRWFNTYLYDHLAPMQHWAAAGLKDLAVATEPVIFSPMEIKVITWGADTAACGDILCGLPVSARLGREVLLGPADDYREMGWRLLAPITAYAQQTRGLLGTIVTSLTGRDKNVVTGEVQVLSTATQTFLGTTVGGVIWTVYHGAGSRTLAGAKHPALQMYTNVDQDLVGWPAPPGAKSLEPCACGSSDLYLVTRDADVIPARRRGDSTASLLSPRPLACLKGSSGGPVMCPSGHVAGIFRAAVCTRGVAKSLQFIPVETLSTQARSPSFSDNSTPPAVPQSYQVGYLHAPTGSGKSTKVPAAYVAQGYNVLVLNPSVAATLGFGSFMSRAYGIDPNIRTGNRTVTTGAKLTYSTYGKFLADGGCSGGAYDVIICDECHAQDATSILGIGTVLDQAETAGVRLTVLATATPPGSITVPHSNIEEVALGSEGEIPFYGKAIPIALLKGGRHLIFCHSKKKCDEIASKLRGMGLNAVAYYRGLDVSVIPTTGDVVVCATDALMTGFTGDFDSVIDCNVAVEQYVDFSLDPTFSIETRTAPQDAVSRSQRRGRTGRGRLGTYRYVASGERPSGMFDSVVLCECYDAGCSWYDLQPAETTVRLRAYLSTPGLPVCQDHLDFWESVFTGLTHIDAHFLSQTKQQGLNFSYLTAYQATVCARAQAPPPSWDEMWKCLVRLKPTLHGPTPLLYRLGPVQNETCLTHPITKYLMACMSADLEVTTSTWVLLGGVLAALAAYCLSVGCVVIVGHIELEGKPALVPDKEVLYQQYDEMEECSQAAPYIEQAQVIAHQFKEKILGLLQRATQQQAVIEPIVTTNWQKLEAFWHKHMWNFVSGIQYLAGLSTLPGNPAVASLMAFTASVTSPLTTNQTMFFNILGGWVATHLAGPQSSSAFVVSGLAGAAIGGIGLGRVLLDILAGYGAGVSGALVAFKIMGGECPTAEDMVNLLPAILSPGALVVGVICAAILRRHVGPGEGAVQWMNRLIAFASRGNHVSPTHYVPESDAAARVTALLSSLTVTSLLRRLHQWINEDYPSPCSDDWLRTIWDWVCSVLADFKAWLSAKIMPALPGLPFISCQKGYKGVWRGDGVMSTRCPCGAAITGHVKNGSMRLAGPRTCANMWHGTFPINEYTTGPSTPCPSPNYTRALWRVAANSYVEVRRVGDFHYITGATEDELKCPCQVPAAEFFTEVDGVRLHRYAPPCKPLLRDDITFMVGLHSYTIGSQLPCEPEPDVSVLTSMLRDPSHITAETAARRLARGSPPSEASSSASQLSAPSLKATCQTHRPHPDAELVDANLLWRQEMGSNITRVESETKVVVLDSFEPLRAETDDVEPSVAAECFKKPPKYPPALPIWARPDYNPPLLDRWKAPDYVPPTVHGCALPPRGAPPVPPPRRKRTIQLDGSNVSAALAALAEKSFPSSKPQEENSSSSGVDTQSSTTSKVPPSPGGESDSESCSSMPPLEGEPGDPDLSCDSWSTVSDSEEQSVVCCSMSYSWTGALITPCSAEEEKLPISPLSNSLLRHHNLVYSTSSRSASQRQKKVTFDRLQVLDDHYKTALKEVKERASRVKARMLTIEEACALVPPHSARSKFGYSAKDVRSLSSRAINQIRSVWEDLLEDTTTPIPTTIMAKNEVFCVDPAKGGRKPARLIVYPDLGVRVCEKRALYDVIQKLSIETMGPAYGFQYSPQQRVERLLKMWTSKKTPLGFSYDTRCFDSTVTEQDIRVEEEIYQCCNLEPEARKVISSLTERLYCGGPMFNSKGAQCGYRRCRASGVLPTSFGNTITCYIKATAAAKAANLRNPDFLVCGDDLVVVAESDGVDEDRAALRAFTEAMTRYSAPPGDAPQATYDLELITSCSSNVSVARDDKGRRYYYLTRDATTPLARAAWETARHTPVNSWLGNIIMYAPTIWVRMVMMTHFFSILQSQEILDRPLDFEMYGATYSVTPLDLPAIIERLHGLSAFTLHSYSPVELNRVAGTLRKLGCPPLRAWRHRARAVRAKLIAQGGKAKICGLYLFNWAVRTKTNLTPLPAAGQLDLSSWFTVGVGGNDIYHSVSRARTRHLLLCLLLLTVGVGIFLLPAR
Protocol: HCV polymerase reactions were carried out using a modified method of Howe et al., Antimicrobial Agents and Chemotherapy 2004 48(12): 4813-4821. Reactions contained a final concentration of, 0.5% DMSO, 50 nM, 1b (BK) NS5bΔ21, 20 mM Tris-HCl pH 7.5, 5 mM MgCl2, 5 mM MnCl2, 3 mM DTT, 0.05% BSA, 0.2 U/μL RNasin, 10 μg/mL Poly(rC) template, GTP (at Km) and 0.05 μCi/μL ^33P-GTP in a total reaction volume of 50 μL. Compounds were tested in a three fold dilution series, for example starting from 50 μM. Reactions were initiated with the addition of GTP and terminated after 1 hour with 50 μL ice cold 0.2 M EDTA. Terminated reactions were transferred to DEAE 96-well filter plates, unincorporated nucleotides washed from the filters and 50 μL scintillation fluid added prior to reading on a scintillation counter. Similarly, a genotype 3a (VRL-69) NS5bΔ21 polymerase enzyme assay was conducted using essentially the same method.
The compound concentration that reduced ^33P-GTP incorporation by 50% (IC50) was calculated using non-linear regression.

[2] = test system: genotype 1b (Con 1) subgenomic replicon cell line; experiment: HCV replicon assay, genotype 1b (Renilla luciferase); type: cell-based, HCV genotype 1b (Con 1); settings: Hepatitis C virus, genotype 1b replicon
How it was run: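 Subgenomic replicon cells expressing Renilla luciferase (1b Con1; 1a and 2a lines by the same method) seeded at 7000 cells/well (5000 for 2a) without G418, exposed to 3-fold compound dilutions for 72 h at 37 °C. Luciferase activity measured; EC50 by non-linear regression.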

[3] = test system: subgenomic genotype 1a replicon cell line; experiment: HCV replicon assay, genotype 1a; type: cell-based, HCV genotype 1a; settings: Hepatitis C virus
Protocol: (§1) A genotype 1b (Con 1) subgenomic replicon cell line based on Blight et al., Science 2000 290: 1972-1974, modified to express a Renilla luciferase reporter gene was used to assess antiviral activity of test compounds. Cell cultures were maintained in a sub-confluent state in DMEM with glutamine, 10% heat-inactivated foetal bovine serum (FBS) and G418 (Geneticin®).
(§2) For assay, cells were seeded at a density of 7000 cells/well into 96 well tissue culture trays in culture media lacking G418. Compounds were tested in a three fold dilution series, for example starting from 50 uM. After 72 hours incubation at 37° C. and 5% CO2, Renilla luciferase activity was quantified via the Promega Renilla Luciferase or Renilla-Glo™ Luciferase Assay Systems (Promega corporation. The same method was employed for replicon assays using subgenomic genotype 1a and 2a replicon cell lines with a seeding cell density of 5000 cells/well for the 2a cell lines.
(§3) The compound concentration that reduced luciferase activity by 50% (EC50) was calculated using non-linear regression.

[4] = test system: subgenomic genotype 2a replicon cell line; experiment: HCV replicon assay, genotype 2a; type: cell-based, HCV genotype 2a; settings: Hepatitis C virus
Protocol: as §1, §2, §3

[5] = 1b (BK) NS5bΔ21, 33P-GTP incorporation, read-out: 1b polymerase IC50 (range class)
[6] = genotype 1b, read-out: 1b NS5b polymerase IC50
[7] = 72 hours, luciferase, read-out: genotype 1b EC50 (range class)
[8] = genotype 3a, read-out: 3a NS5b polymerase IC50

1b (BK) NS5bΔ21, sequence (P26663 2420-2989): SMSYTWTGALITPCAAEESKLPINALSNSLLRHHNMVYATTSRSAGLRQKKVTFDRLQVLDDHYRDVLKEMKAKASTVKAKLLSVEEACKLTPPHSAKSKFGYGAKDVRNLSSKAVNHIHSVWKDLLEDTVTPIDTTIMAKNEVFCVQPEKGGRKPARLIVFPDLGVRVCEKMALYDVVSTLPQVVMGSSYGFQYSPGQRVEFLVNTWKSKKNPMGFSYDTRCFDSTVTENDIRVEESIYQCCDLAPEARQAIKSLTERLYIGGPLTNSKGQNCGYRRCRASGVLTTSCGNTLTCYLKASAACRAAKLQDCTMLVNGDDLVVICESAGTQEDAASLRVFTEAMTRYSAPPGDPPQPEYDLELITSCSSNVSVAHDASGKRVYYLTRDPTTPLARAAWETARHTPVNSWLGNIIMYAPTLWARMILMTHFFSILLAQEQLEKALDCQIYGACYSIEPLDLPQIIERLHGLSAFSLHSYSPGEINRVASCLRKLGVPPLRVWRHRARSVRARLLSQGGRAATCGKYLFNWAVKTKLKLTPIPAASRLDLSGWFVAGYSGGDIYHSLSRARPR

Compound | IC50 (1b (BK) NS5bΔ21; [5]) [nM] | IC50 (1b (BK) NS5bΔ21; [6]) [nM] | IC50 [1] [nM] | EC50 [2, 7] [nM] | EC50 ([2]; read-out: Replicon 1b EC50) [nM] | EC50 [3] [nM] | EC50 [4] [nM] | IC50 [1, 8] [nM]
CNC(=O)c1c2cc(C3CC3)c(N(CCCNC(=O)c3ccoc3)S(C)(=O)=O)cc2nn1-c1ccc(Nc2ccc(F)cc2)cc1 [Compound 120] | < 990 | 110 | 80 | < 990 | 90 | 3690 | 14400 | –
CCOC(=O)CCN(c1cc2nn(-c3ccc(Br)cc3)c(C(=O)NC)c2cc1C1CC1)S(C)(=O)=O [Compound 131] | < 990 | 370 | 470 | < 990 | 140 | 450 | 3790 | –
CNC(=O)c1c2cc(C3CC3)c(N(CCCNS(C)(=O)=O)S(C)(=O)=O)cc2nn1-c1ccc(Br)cc1 [Compound 134] | < 990 | 90 | – | < 990 | 110 | 540 | 5020 | 30
CCN(c1cc2nn(-c3ccc(Oc4ccc(F)cc4)nc3)c(C(=O)NC)c2cc1C1CC1)S(C)(=O)=O [Compound 136] | 1000 to 9990 | 1550 | – | < 990 | 270 | 1530 | 1800 | 820
CNC(=O)c1c2cc(C3CC3)c(N(CCCNC(=O)C(C)C)S(C)(=O)=O)cc2nn1-c1ccc(Br)cc1 [Compound 156] | < 990 | 250 | – | < 990 | 210 | 210 | 1510 | 70
CNC(=O)c1c2cc(C3CC3)c(N(CCCNC(=O)c3ccoc3)S(C)(=O)=O)cc2nn1-c1ccc(Br)cc1 [Compound 160] | < 990 | 70 | – | < 990 | 90 | 340 | 780 | 40
CCOC(=O)CCC(=O)NCCCN(c1cc2nn(-c3ccc(Br)cc3)c(C(=O)NC)c2cc1C1CC1)S(C)(=O)=O [Compound 164] | < 990 | 520 | – | < 990 | 210 | 10 | 620 | 40
CNC(=O)c1c2cc(C3CC3)c(N(CCCNC(=O)c3ccccc3)S(C)(=O)=O)cc2nn1-c1ccc(Br)cc1 [Compound 166] | < 990 | 160 | – | < 990 | 20 | 20 | 340 | 30
CCCC(=O)NCCCN(c1cc2nn(-c3ccc(Br)cc3)c(C(=O)NC)c2cc1C1CC1)S(C)(=O)=O [Compound 171] | < 990 | 310 | – | < 990 | 210 | 280 | 4260 | 40
CNC(=O)c1c2cc(C3CC3)c(N(CCCNC(=O)C(F)(F)F)S(C)(=O)=O)cc2nn1-c1ccc(Br)cc1 [Compound 172] | < 990 | 110 | – | < 990 | 60 | 60 | 1830 | 40
